# According to PubChem BioAssay (NCI):
#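 Results reflect a 48-hour exposure of cells in 96-well plates to compound at five concentrations. TGI marks complete inhibition of growth.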
# Columns and labels:
# Assay in all cases: NCI tumour cell line growth inhibition, 48 h
# MDA-MB-435 = tested on: MDA-MB-435
# UACC-62 melanoma = tested on: UACC-62 melanoma
# HL-60(TB) leukemia = tested on: HL-60(TB) leukemia
# OVCAR-3 ovarian = tested on: OVCAR-3 ovarian
# SW-620 colon = tested on: SW-620 colon
# HOP-92 NSCLC = tested on: HOP-92 NSCLC
# DU-145 prostate = tested on: DU-145 prostate
# MDA-MB-231 breast = tested on: MDA-MB-231 breast
# RXF 393 renal = tested on: RXF 393 renal
# SNB-19 CNS = tested on: SNB-19 CNS
Compound,TGI (MDA-MB-435),TGI (UACC-62 melanoma),TGI (HL-60(TB) leukemia),TGI (OVCAR-3 ovarian),TGI (SW-620 colon),TGI (HOP-92 NSCLC),TGI (DU-145 prostate),TGI (MDA-MB-231 breast),TGI (RXF 393 renal),TGI (SNB-19 CNS)
O=C(O)CN1CCN2CCOCCN(CC1)CCN(CC(=O)O)CC2,> 100 µM,> 100 µM,> 100 µM,> 100 µM,> 100 µM,> 100 µM,> 100 µM,> 100 µM,> 100 µM,> 100 µM
Cn1c2ccccc2n2c3ccccc3c3nnc(N)c-3c12,> 100 µM,> 100 µM,> 100 µM,> 100 µM,> 100 µM,> 100 µM,> 100 µM,> 100 µM,> 87.6 µM,25.5 µM
NS(=O)(=O)c1ccc(NNc2c3ccccc3nc3c(C(=O)Nc4ccc(S(N)(=O)=O)cc4)cccc23)cc1,> 100 µM,> 100 µM,68.9 µM,> 100 µM,> 100 µM,73.4 µM,> 100 µM,> 100 µM,64.5 µM,> 100 µM
CCOC(=O)c1c2ccccc2n2c(=O)n(-c3ccccc3)nnc12,> 100 µM,> 100 µM,> 100 µM,> 100 µM,> 100 µM,> 100 µM,> 100 µM,> 100 µM,> 100 µM,> 100 µM
COc1ccc(C2OC2C(=O)C23CC4CC(CC(C4)C2)C3)cc1 (stereo not given),> 100 µM,49 µM,97.2 µM,> 100 µM,> 100 µM,> 100 µM,> 100 µM,> 100 µM,> 100 µM,> 100 µM
CC(C)C1CC(CO)(CNc2nc(N)nc(Cl)c2C=O)C1 (stereo not given),4.58 µM,4.11 µM,3.92 µM,8.77 µM,21.8 µM,4.83 µM,29.1 µM,5.14 µM,28.3 µM,17.1 µM
Cc1nnc(NS(=O)(=O)c2ccc(N=Nc3c(O)c(C(=O)O)cc4ccccc34)cc2)s1,> 100 µM,> 100 µM,> 100 µM,> 100 µM,> 100 µM,> 100 µM,> 100 µM,> 100 µM,> 100 µM,> 100 µM
FC(F)(F)c1ccc2c(c1)nc(Cc1ccc(Cl)cc1)n2CC1CCCN2CCCCC12 (stereo not given),24.4 µM,10.1 µM,6.13 µM,15.2 µM,27.4 µM,20.4 µM,21.6 µM,13.1 µM,22 µM,26.9 µM
O=C1C/C(=C\c2ccccc2)C(=O)c2ccccc2N1,42.7 µM,40.5 µM,49.2 µM,50.5 µM,40.7 µM,60.7 µM,59.4 µM,49.7 µM,35.8 µM,30.7 µM
O=c1[nH]c2ccccc2c(=O)c2cc3ccccc3cc12,> 100 µM,> 100 µM,> 100 µM,> 100 µM,> 100 µM,19.8 µM,> 100 µM,22 µM,56.3 µM,37.3 µM
COc1cc(N(CCC#N)CCC#N)ccc1/C(N=Nc1cccc([N+](=O)[O-])c1)=N\NC(=O)c1ccc(C)cc1,> 100 µM,> 100 µM,49.1 µM,> 100 µM,> 100 µM,> 100 µM,> 100 µM,> 100 µM,> 100 µM,> 100 µM
NC(C(=O)O)C(O)c1cnc[nH]1 (stereo not given),> 100 µM,> 100 µM,> 100 µM,> 100 µM,> 100 µM,> 100 µM,> 100 µM,> 100 µM,> 100 µM,> 100 µM
CC(=O)OCC1OC(NC(=S)Nn2c(-c3ccccc3)nc3ccccc3c2=O)C(OC(C)=O)C(OC(C)=O)C1OC(C)=O (stereo not given),> 100 µM,> 100 µM,> 100 µM,> 100 µM,> 100 µM,> 100 µM,> 100 µM,> 100 µM,> 100 µM,> 100 µM
CC(C)=CCN1c2ccccc2[C@@]2(CC=C(C)C)CCN(C)[C@@H]12,54.3 µM,34.8 µM,38.1 µM,57.3 µM,> 100 µM,> 100 µM,> 100 µM,> 100 µM,> 100 µM,52.6 µM
COC(=O)c1c(O)ccc2c1c1c(n2CCc2ccccc2)C(=O)c2ccccc2C1,67 µM,37.2 µM,65.3 µM,47.5 µM,> 100 µM,30.9 µM,> 100 µM,57 µM,31.3 µM,84.1 µM
O=[N+]([O-])C1=Cc2c(O)ccc(O)c2C2c3ccccc3NC12 (stereo not given),28.6 µM,22.7 µM,> 21 µM,19.3 µM,> 47.1 µM,20.7 µM,> 54 µM,31.4 µM,26.4 µM,34.5 µM
CN(C)CCCCN1c2ccccc2Sc2ccc(N=[N+]=[N-])cc21,4.36 µM,3.77 µM,4.3 µM,20 µM,16.8 µM,13.4 µM,18.2 µM,19.9 µM,16.1 µM,23.5 µM
N#CC(C#N)=CNC(=S)Nc1ccc(S(=O)(=O)Nc2nccs2)cc1,> 100 µM,> 100 µM,> 100 µM,> 100 µM,> 100 µM,> 100 µM,> 100 µM,> 100 µM,> 100 µM,> 100 µM
NC(Cc1c2ccccc2cc2ccccc12)C(=O)O (stereo not given),> 100 µM,> 100 µM,> 100 µM,> 100 µM,> 100 µM,> 100 µM,> 100 µM,> 100 µM,> 100 µM,> 100 µM
COc1cc(CCNC2=CC(=O)c3ncccc3C2=O)ccc1O,2.84 µM,3.8 µM,> 26.9 µM,5.97 µM,12.1 µM,42.7 µM,12.3 µM,6.24 µM,18 µM,17.7 µM
COC(=O)[C@]1(CCC(C)=O)C(=O)C=CN([C@H](C)c2ccccc2)[C@@H]1Cc1ccc(OC)c(OCc2ccccc2)c1I,42.9 µM,29.2 µM,69.8 µM,31 µM,> 100 µM,21.3 µM,37.5 µM,35.7 µM,23.6 µM,81.8 µM
